Test results published in article PMC7002245 (European journal of medicinal chemistry, 2019).
Where two headings read alike, the source gives them in different places.

Key:
rhinovirus B5 = type: cell-based; conditions: HeLa cells, CPE inhibition, 72 h post infection; n/a = not active (max 100 μM)
coxsackievirus B3 Nancy = type: cell-based; conditions: HeLa cells, CPE inhibition, 48 h post infection; n/a = not active (max 100 μM)
[1] = test system: coxsackievirus B3 97927 I1207K I1092; type: cell-based
E. coli PQ37 = experiment: microbe, parasite or virus in culture; type: cell-based; conditions: Escherichia coli
[2] = Pharmacokinetic study in mice after intragastric administration; type: in vivo
CYP3A4 = conditions: human, hepatocytes
rhinovirus B14 = type: cell-based; conditions: HeLa cells, CPE inhibition, 72 h post infection; n/a = not active (max 100 μM)

SMILES: COC(=O)c1cc(CCCOc2c(C)cc(-c3noc(C(F)(F)F)n3)cc2C)on1 [6a, 3-(3,5-Dimethyl-4-(3-(3-carbmethoxy-isoxazol-5-yl)propoxy)phenyl)-5-trifluoromethyl-1,2,4-oxadiazole]
- IC50 towards rhinovirus B5 (rhinovirus B5): no activity

SMILES: CCOC(=O)c1cc(CCCOc2ccc(-c3noc(C(F)(F)F)n3)cc2)on1 [6c, 3-(4-(3-(3-Carbethoxy-isoxazol-5-yl)propoxy)phenyl)-5-trifluoromethyl-1,2,4-oxadiazole]
- IC50 towards rhinovirus B5 (rhinovirus B5): inactive
- IC50 towards coxsackievirus B3 Nancy (coxsackievirus B3 Nancy): inactive
- IC50 towards coxsackievirus B3 97927 I1207K I1092 [1]: inactive

SMILES: CNC(=O)c1cc(CCCOc2c(C)cc(-c3noc(C(F)(F)F)n3)cc2C)on1 [10b, 3-(3,5-Dimethyl-4-(3-(3-methylcarbamoyl-isoxazol-5-yl)propoxy)phenyl)-5-trifluoromethyl-1,2,4-oxadiazole]
- zone of inhibition at 10000 µg/mL (E. coli PQ37): 0 mm

SMILES: Cc1cc(-c2noc(C(F)(F)F)n2)cc(C)c1OCCCc1cc(C(=O)N(C)C)no1 [10e, 3-(3,5-Dimethyl-4-(3-(3-N,N-dimethylcarbamoyl-isoxazol-5-yl)propoxy)phenyl)-5-trifluoromethyl-1,2,4-oxadiazole]
- zone of inhibition at 10000 µg/mL (E. coli PQ37): 0 mm

SMILES: Cc1cc(-c2noc(C(F)(F)F)n2)ccc1OCCCc1cc(C(=O)N(C)C)no1 [10g, 3-(3-Methyl-4-(3-(3-N,N-dimethylcarbamoyl-isoxazol-5-yl)propoxy)phenyl)-5-trifluoromethyl-1,2,4-oxadiazole]
- bioavailability ([2]; 100 mg/kg intragastric): very high bioavailability
- CL ([2]; 100 mg/kg single dose intragastric, CL = dose/AUC0-∞): 0.66 h⁻¹
- induction of CYP3A4 (fold) (CYP3A4; 1 μM): 1.2 x
- induction of CYP3A4, % of control (CYP3A4; 1 μM): 3%
- induction of CYP3A4 (fold) (CYP3A4; 10 μM): 1.4 x
- induction of CYP3A4, % of control (CYP3A4; 10 μM): 7%
- zone of inhibition at 10000 µg/mL (E. coli PQ37): 0 mm

SMILES: CN(C)C(=O)c1cc(CCCOc2ccc(-c3noc(C(F)(F)F)n3)cc2[N+](=O)[O-])on1 [10i, 3-(3-Nitro-4-(3-(3-N,N-dimethylcarbamoyl-isoxazol-5-yl)propoxy)phenyl)-5-trifluoromethyl-1,2,4-oxadiazole]
- zone of inhibition at 10000 µg/mL (E. coli PQ37): 0 mm

SMILES: CN(C)C(=O)c1cc(CCCOc2ccc(-c3noc(C(F)(F)F)n3)cc2C(F)(F)F)on1 [10k, 3-(3-Trifluoromethyl-4-(3-(3-N,N-dimethylcarbamoyl-isoxazol-5-yl)propoxy)phenyl)-5-trifluoromethyl-1,2,4-oxadiazole]
- zone of inhibition at 10000 µg/mL (E. coli PQ37): 0 mm

SMILES: CNC(=O)c1cc(CCCOc2ccc(-c3noc(C(F)(F)F)n3)cc2C(F)(F)F)on1 [10m, 3-(3-Trifluoromethyl-4-(3-(3-methylcarbamoyl-isoxazol-5-yl)propoxy)phenyl)-5-trifluoromethyl-1,2,4-oxadiazole]
- IC50 towards rhinovirus B5 (rhinovirus B5): did not totally inhibit
- IC50 towards rhinovirus B14 (rhinovirus B14): did not totally inhibit
- IC50 towards coxsackievirus B3 97927 I1207K I1092 [1]: no activity

SMILES: Cc1cc(CCCOc2c(C)cc(-c3noc(C(F)(F)F)n3)cc2C)on1 [P, pleconaril, reference compound]
- induction of CYP3A4, % of control (CYP3A4; 1 μM): 13%
- induction of CYP3A4, % of control (CYP3A4; 10 μM): 30%
